Assay results reported in patent US20250109140A1, “5-[5-(PIPERIDIN-4-YL)THIENO[3,2-C]PYRAZOL-2-YL]INDAZOLE DERIVATIVES AND RELATED COMPOUNDS AS MODULATORS FOR SPLICING NUCLEIC ACIDS AND FOR THE TREATMENT OF PROLIFERATIVE DISEASES” (REMIX THERAPUTICS INC., priority 2022, published 2025).
Like-named read-outs stand apart in the source and are kept apart here.

Tests used:
Target C mRNA = experiment: Splicing RT-qPCR gene panel, Target C canonical junction (CJ) mRNA; assay type: cell-based; conditions: Homo sapiens; Table 8; larger gene panel, decrease in CJ mRNA levels
Outline: (§1)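 A673/K562; 11-pt 3-fold dil., top 10 uM final, ≤0.25% DMSO; 24 h, 37 °C, 5% CO2. Lysis, then RT-qPCR of CJ/AJ isoforms, ≥duplicate. ΔCt vs housekeeper (GAPDH/GUSB/PPIA), ΔΔCt vs DMSO, RQ = 2^(−ΔΔCt), expressed as % response.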

HTT mRNA = experiment: Splicing RT-qPCR assay, HTT canonical (CJ) and alternative (AJ) junction mRNA; assay type: cell-based; conditions: Homo sapiens; for EC50: AC50 = 50% response in AJ mRNA increase
Outline: as §1

HiBiT-tagged MYB protein = experiment: HiBiT protein abundance assay, MYB (K562 HiBiT knock-in cells); assay type: cell-based, human; conditions: 24 hours treatment
Protocol: (§2) Compounds described herein were used to screen for effects on quantitative protein abundance using a HiBit assay system (Promega). Quantitative protein abundance was determined by measuring the protein levels of HiBit-tagged protein targets expressed in cell culture via luminescence using the Nano-Glo HiBiT Lytic Detection System, which uses a split complementation assay format to reconstitute NanoBiT enzyme to generate a luminescent signal. A protein abundance assay was developed such that endogenous protein targets could be modified with the HiBiT peptide tag and their abundance could be assessed after compound treatment. Briefly, K562 cell lines containing a HiBiT-modification were treated with various compounds described herein (e.g., compounds of Formulas (I), or (II)). After treatment for 24 hours, the protein abundance of a specific target was determined by measuring luminescence.
(§3) Cells were maintained in IMDM with 10% FBS. Before the assay, cells were diluted with […] growth media (IMDM+[…] media) and were seeded in a 384-well plate at a density of 10000 cells/well (for each cell line listed in Table 6). Each compound was prepared as a 10-point 3-fold serial dilution in DMSO with the top dose at a final concentration of […] in the well. Unmodified K562 cells were added at the previously specified density with DMSO to serve as an assay baseline and positive control (PC) and DMSO only with the respective modified cell lines was added to the negative control (NC) columns. Final DMSO concentration was kept at or below 0.25%. Treated cell plates were placed in an incubator at 37° C. with […] for 24 hours. After 24 hours, 25 μL of Complete HiflitLytic reagent was added to each well at room temperature (e.g. one plate requiring 10 mL Lytic Buffer, 100 μL LgBiT Protein, 200 μL Lytic Substrate), shaken for 5 minutes at 600 RPM, then left to sit for 10 minutes for signal to stabilize before reading on a Spark Cyto plate reader (Tecan) with a 500 ms measurement time.
(§4) To determine compound effects on protein abundance of each target in Table 6, the percent response for each respective cell line was calculated at each compound concentration as follows:
(§5) For the normalized response at each concentration, a four-parameter logistical regression was fit to the data and the response was interpolated at the 50% value to determine a concentration for protein abundance at 50% (IC50) the untreated control.

MYB mRNA = experiment: Splicing RT-qPCR assay, MYB canonical (CJ) and alternative (AJ) junction mRNA; assay type: cell-based; conditions: Homo sapiens; for EC50: AC50 = 50% response in AJ mRNA increase
Outline: as §1

HiBiT-tagged HTT protein = experiment: HiBiT protein abundance assay, HTT (K562 HiBiT knock-in cells); assay type: cell-based, human; conditions: 24 hours treatment
Protocol: as §2, §3, §4, §5

SMN2 mRNA = experiment: Splicing RT-qPCR gene panel, SMN2 canonical junction (CJ) mRNA; assay type: cell-based; conditions: Homo sapiens; Table 8; larger gene panel, decrease in CJ mRNA levels
Outline: as §1

[1] = tested on: K562 (human chronic myelogenous leukemia) cells; experiment: Cell viability, Cell Titer Glo 2.0 assay, K562 cells; assay type: cell-based; conditions: 72 hours
Protocol: Compounds described herein were screened for toxicity in K562 (human chronic myelogenous leukemia) and SH-SY5Y (human neuroblastoma) cells using a Cell Titer Glo 2.0 assay.
Cells were plated at 500 cells/well (K562 cells) in 45 μL of IMDM supplemented with 10% FBS in a 384-well opaque plate. Wells containing only medium were used as a blank control. Test compounds (e.g., compounds of Formula (I), (III), (IV), (V), or (VI)) were first serially diluted in DMSO then diluted 1:100 with IMDM+10% FBS. The final concentration of DMSO was 0.1% in each well. The cells were incubated for 72 hours at 37° C. and 5% CO2 before assaying with Cell Titer Glo 2.0 reagent.

Target C = experiment: HiBiT protein abundance assay, Target C (K562 HiBiT knock-in cells); assay type: cell-based, human; conditions: 24 hours treatment
Protocol: • Promega Nano-Glo HiBiT Lytic Detection System (cat #N3030) • Corning 384-well TC-treated microplates (cat #3570) • Synthego Engineered Cells Knock-In Clones
as §3, §4, §5

[2] = Table 7, RT-qPCR, A673 or K562 cells, 24 hours treatment
[3] = Table 7, IC50 = 50% response in CJ mRNA decrease, RT-qPCR, A673 or K562 cells, 24 hours treatment, read-out: HTT CJ
[4] = Table 8, larger gene panel, decrease in CJ mRNA levels, read-out: HTT CJ IC50
[5] = Table 7, IC50 = 50% response in CJ mRNA decrease, RT-qPCR, A673 or K562 cells, 24 hours treatment, read-out: MYB CJ
[6] = Table 8, larger gene panel, decrease in CJ mRNA levels, read-out: MYB CJ IC50

SMILES | IC50 (Target C mRNA) [nM] | EC50 (HTT mRNA; [2]) [nM] | IC50 (HTT mRNA; [3]) [nM] | IC50 (HTT mRNA; [4]) [nM] | IC50 (HiBiT-tagged MYB protein) [nM] | EC50 (MYB mRNA; [2]) [nM] | IC50 (MYB mRNA; [5]) [nM] | IC50 (MYB mRNA; [6]) [nM] | IC50 (HiBiT-tagged HTT protein) [nM] | IC50 (SMN2 mRNA) [nM] | IC50 [1] [nM] | IC50 (Target C) [nM]
Cn1cc2cc(-c3cc4cn([C@@H]5CCNC[C@H]5F)nc4s3)cc(F)c2n1 [Compound 187] | 100 to 1000 | < 100 | < 100 | < 100 | 100 to 1000 | 100 to 1000 | 100 to 1000 | 100 to 1000 | < 100 | < 100 | 1000 to 10000 | 100 to 1000
Cn1cc2cc(-c3cc4cn([C@@H]5CCNC[C@@H]5F)nc4s3)cc(F)c2n1 [Compound 183] | 1000 to 10000 | 1000 to 10000 | 100 to 1000 | 1000 to 10000 | 100 to 1000 | 1000 to 10000 | 1000 to 10000 | 1000 to 10000 | < 100 | 100 to 1000 | 100 to 1000 | < 100
Cn1cc2c(F)cc(-n3cc4cc(C5CCNCC5)sc4n3)cc2n1 [Compound 174] | > 10000 | > 10000 | > 10000 | > 10000 | 1000 to 10000 | > 10000 | > 10000 | > 10000 | 1000 to 10000 | 1000 to 10000 | 1000 to 10000 | > 10000
Cc1cc(-n2cc3nc(C4CCNCC4)sc3n2)cc2cn(C)nc12 [Compound 1106] | > 10000 | 1000 to 10000 | 1000 to 10000 | 1000 to 10000 | 1000 to 10000 | 1000 to 10000 | > 10000 | > 10000 | 1000 to 10000 | 1000 to 10000 | > 10000 | 1000 to 10000
Cc1nc2cc(O)c(-c3nc4cn(C5CCNCC5)nc4s3)cc2o1 [Compound 1104] | 1000 to 10000 | 100 to 1000 | 100 to 1000 | 100 to 1000 | 1000 to 10000 | 1000 to 10000 | 1000 to 10000 | 1000 to 10000 | < 100 | < 100 | 1000 to 10000 | 100 to 1000
Cc1cn2cc(-c3cc4cn(C5CCNCC5)nc4s3)cc(F)c2n1 [Compound 229] | 100 to 1000 | < 100 | < 100 | < 100 | 100 to 1000 | 100 to 1000 | 100 to 1000 | 100 to 1000 | < 100 | < 100 | 100 to 1000 | < 100
Cc1cn2cc(-n3cc4cc(C5CCNCC5)sc4n3)cc(Cl)c2n1 [Compound 165] | 100 to 1000 | < 100 | < 100 | < 100 | 100 to 1000 | 1000 to 10000 | 100 to 1000 | 1000 to 10000 | < 100 | < 100 | 100 to 1000 | 100 to 1000
Cc1cn2nc(-c3cc4cn(C5CCNCC5)nc4s3)cc(C)c2n1 [Compound 162, 4-(5-{2,8-dimethylimidazo[1,2-b]pyridazin-6-yl}thieno[2,3-c]pyrazol-2-yl)piperidine] | 100 to 1000 | 100 to 1000 | 100 to 1000 | 100 to 1000 | 100 to 1000 | 100 to 1000 | 100 to 1000 | 100 to 1000 | < 100 | < 100 | 1000 to 10000 | 100 to 1000
Cc1cn2cc(-n3cc4sc(C5CCNCC5)cc4n3)nc2c(C)n1 [Compound 181] | > 10000 | 1000 to 10000 | 1000 to 10000 | 1000 to 10000 | 1000 to 10000 | > 10000 | > 10000 | > 10000 | 1000 to 10000 | 1000 to 10000 | 1000 to 10000 | > 10000
Cc1cn2nc(-n3cc4sc(N5CC6(CN(C)C6)C5)cc4n3)cc(C)c2n1 [Compound 188, 2-(2-{2,8-dimethylimidazo[1,2-b]pyridazin-6-yl}thieno [3,2-c]pyrazol-5-yl)-6-methyl-2,6-diazaspiro [3.3]heptane] | 1000 to 10000 | 1000 to 10000 | 100 to 1000 | 1000 to 10000 | 1000 to 10000 | 1000 to 10000 | 1000 to 10000 | 1000 to 10000 | 1000 to 10000 | 100 to 1000 | 1000 to 10000 | 1000 to 10000
Cc1cc(-c2nc3cn(C4CCNCC4)nc3s2)cc2cn(C)nc12 [Compound 1101] | 100 to 1000 | 100 to 1000 | < 100 | < 100 | 100 to 1000 | 100 to 1000 | 100 to 1000 | 100 to 1000 | < 100 | < 100 | 100 to 1000 | < 100
Cc1cn2cc(-n3cc4cc(C5CCNCC5)sc4n3)ncc2n1 [Compound 158] | 100 to 1000 | 100 to 1000 | 100 to 1000 | 100 to 1000 | 100 to 1000 | 100 to 1000 | 100 to 1000 | 100 to 1000 | 100 to 1000 | 100 to 1000 | 100 to 1000 | 100 to 1000
Cn1cc2cc(-c3cc4cn([C@@H]5CCNC[C@H]5O)nc4s3)cc(F)c2n1 [Compound 273] | > 10000 | 1000 to 10000 | > 10000 | > 10000 | > 10000 | 1000 to 10000 | > 10000 | > 10000 | 1000 to 10000 | 100 to 1000 | 1000 to 10000 | > 10000
Cn1cc2cc(-c3cc4cn(C5CCOCC5)nc4s3)cc(F)c2n1 [Compound 161, 7-fluoro-2-methyl-5-[2-(oxan-4-yl)thieno[2,3-c]pyrazol-5-yl]indazole] | > 10000 | > 10000 | > 10000 | > 10000 | > 10000 | > 10000 | > 10000 | > 10000 | > 10000 | > 10000 | > 10000 | > 10000
Cn1cc2cc(-c3cc4cn(C5CCNCC5)nc4s3)cc(F)c2n1 [Compound 122, 7-fluoro-2-methyl-5-[2-(piperidin-4-yl)thieno[2,3-c]pyrazol-5-yl]indazole] | < 100 | < 100 | < 100 | < 100 | < 100 | 100 to 1000 | < 100 | 100 to 1000 | < 100 | < 100 | < 100 | < 100
Cn1cc2cc(-c3cc4cn(C5CCNCC5)nc4s3)c(C#N)cc2n1 [Compound 211] | 1000 to 10000 | 1000 to 10000 | 1000 to 10000 | 1000 to 10000 | 1000 to 10000 | 1000 to 10000 | 1000 to 10000 | 1000 to 10000 | 100 to 1000 | 100 to 1000 | 1000 to 10000 | 1000 to 10000
